Laboratory results: PMC12371494, “Discovery of YTHDF2 Ligands by Fragment-Based Design” (ACS Bio & Med Chem Au, 2025)

These compounds were tested against T1, GST-YTHDF2 (Homo sapiens, UniProt Q9Y5A9) (assay: HTRF-based binding assay, competition with m6A-oligoRNA, DF2). Details: HTRF, 100 µM compound.
T1 construct: made in house
T1 sequence (Q9Y5A9 1-579): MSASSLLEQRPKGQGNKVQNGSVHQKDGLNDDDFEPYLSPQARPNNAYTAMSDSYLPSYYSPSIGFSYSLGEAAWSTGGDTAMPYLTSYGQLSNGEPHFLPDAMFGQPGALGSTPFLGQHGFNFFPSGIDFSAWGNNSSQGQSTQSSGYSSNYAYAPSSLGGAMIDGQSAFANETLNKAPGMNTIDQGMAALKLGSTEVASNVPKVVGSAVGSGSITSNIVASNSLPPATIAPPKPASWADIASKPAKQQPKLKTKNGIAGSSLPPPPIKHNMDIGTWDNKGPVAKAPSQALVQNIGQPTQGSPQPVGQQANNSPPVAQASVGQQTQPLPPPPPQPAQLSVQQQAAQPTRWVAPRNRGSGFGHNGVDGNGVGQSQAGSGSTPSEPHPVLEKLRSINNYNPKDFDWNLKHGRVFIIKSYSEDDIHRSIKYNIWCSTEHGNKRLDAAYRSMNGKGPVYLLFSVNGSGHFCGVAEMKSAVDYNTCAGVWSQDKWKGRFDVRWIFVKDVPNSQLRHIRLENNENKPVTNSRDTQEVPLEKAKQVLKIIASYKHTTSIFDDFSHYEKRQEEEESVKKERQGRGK
In the case of `Nn1c(=S)[nH]c2scc(-c3ccccc3)c2c1=O` [Compound S68], the “% at 100 µM” value is reported as 32%. In the case of `O=c1[nH]c(=S)[nH]c2scc(-c3cccs3)c12` [Compound S70], the “% at 100 µM” value is reported as 45%. With `COc1cccc2c1OCc1sc3[nH]c(=S)[nH]c(=O)c3c1-2` [Compound S73] the “% at 100 µM” value was 22%.

Same assay, conditions: HTRF, 100 µM compound, normalized
With `Cc1c(C(C)O)sc2[nH]c(=S)[nH]c(=O)c12` (racemic) [Compound S79] the “Single-dose residual signal at 100 µM, DF2” value was 9%. For `Cc1cc2c(=O)[nH]c(=S)[nH]c2s1` [Compound S78], the “Single-dose residual signal at 100 µM, DF2” value was 8%. In the case of `Cc1c(C(=O)O)sc2[nH]c(=S)[nH]c(=O)c12` [Compound S80], the “Single-dose residual signal at 100 µM, DF2” value is reported as 9%. For `Cc1c(C(=O)NCCCCO)sc2[nH]c(=S)[nH]c(=O)c12` [Compound S83], the “Single-dose residual signal at 100 µM, DF2” value was 9%.

Same assay, conditions: HTRF, 1 mM compound, relative to control; average of two technical replicates; * = interference with the assay
In the case of `Nn1c(=S)[nH]c2scc(-c3ccccc3)c2c1=O` [Compound S68], the “Residual signal at 1 mM concentration” value is reported as 36%. With `O=c1[nH]c(=S)[nH]c2scc(-c3cccs3)c12` [Compound S70] the “Residual signal at 1 mM concentration” value was 49%. `COc1cccc2c1OCc1sc3[nH]c(=S)[nH]c(=O)c3c1-2` [Compound S73] was tested, and the “Residual signal at 1 mM concentration” value was 64%.

Same assay, conditions: dose-response, competitor m6A-oligoRNA; read-out: DF2 IC50 (HTRF assay)
With `Cc1c(C(C)O)sc2[nH]c(=S)[nH]c(=O)c12` (racemic) [Compound S79] the IC50 was 27 µM. Compound `Cc1cc2c(=O)[nH]c(=S)[nH]c2s1` [Compound S78] has an IC50 of 38 µM. For `Cc1c(C(=O)O)sc2[nH]c(=S)[nH]c(=O)c12` [Compound S80], the IC50 was 32 µM. `Cc1c(C(=O)NCCCCO)sc2[nH]c(=S)[nH]c(=O)c12` [Compound S83] was tested, and the IC50 was 25 µM.

Each compound was assayed against T2, GST-YTHDF1 (Homo sapiens, UniProt Q9BYJ9) (assay: HTRF-based binding assay, DF1). Details: HTRF, 100 µM compound, normalized.
T2 construct: made in house
T2 sequence (Q9BYJ9 1-559): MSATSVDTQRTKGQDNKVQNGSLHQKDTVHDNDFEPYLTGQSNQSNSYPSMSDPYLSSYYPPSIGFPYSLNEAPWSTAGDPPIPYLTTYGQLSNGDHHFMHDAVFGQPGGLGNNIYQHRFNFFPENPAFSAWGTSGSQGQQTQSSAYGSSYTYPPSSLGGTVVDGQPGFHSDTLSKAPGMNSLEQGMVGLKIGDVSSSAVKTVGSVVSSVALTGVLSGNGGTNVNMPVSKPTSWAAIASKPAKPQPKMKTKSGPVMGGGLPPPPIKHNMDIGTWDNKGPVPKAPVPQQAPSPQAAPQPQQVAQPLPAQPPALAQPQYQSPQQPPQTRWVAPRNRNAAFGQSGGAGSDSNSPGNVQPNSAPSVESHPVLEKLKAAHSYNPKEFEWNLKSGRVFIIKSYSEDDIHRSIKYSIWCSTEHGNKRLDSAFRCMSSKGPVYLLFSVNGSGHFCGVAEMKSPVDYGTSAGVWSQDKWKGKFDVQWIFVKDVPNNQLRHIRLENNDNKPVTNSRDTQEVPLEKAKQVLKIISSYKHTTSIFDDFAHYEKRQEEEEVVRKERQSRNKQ
Experimental: (§1) The HTRF-based assay was employed to evaluate the selectivity of the series against other DF proteins.
(§2) A dose–response experiment on DF1 and DF3 was conducted for compounds 17, 18, 23, and 27 (Figure S5). Compounds 17, 18, and 27 are active on three DF proteins. […] In contrast, compound 23 is selective for DF2, with residual signals (at the highest employed concentration of 62.5 μM) of 51 and 87% for DF1 and DF3, respectively.
(§3) GST-YTHDC1, GST-YTHDF1, GST-YTHDF2, and GST-YTHDF3 were purified as previously reported. The HTRF assay was assembled as detailed in ref with the only difference being that the starting concentration of the dose–response experiments used for the IC50 determination was variated dependently from the tested compound. The same protocol was applied to the four proteins. The competitive inhibition data of GST-YTHDF1 (single dose experiment at 100 μM compound concentration and dose–response curves), GST-YTHDF3 (single dose experiment at 100 μM compound concentration and dose–response curves), and GST-YTHDF2 (single dose experiment at 100 μM compound concentration) were normalized as described in ref to mitigate interference. The signal was measured as described in ref .
`Cc1c(C(C)O)sc2[nH]c(=S)[nH]c(=O)c12` (racemic) [Compound S79] was tested, and the “Single-dose residual signal at 100 µM, DF1” value was 31%. With `Cc1cc2c(=O)[nH]c(=S)[nH]c2s1` [Compound S78] the “Single-dose residual signal at 100 µM, DF1” value was 17%. With `Cc1c(C(=O)O)sc2[nH]c(=S)[nH]c(=O)c12` [Compound S80] the “Single-dose residual signal at 100 µM, DF1” value was 15%. With `Cc1c(C(=O)NCCCCO)sc2[nH]c(=S)[nH]c(=O)c12` [Compound S83] the “Single-dose residual signal at 100 µM, DF1” value was 17%.

These compounds were tested against T3, GST-YTHDF3 (Homo sapiens, UniProt Q7Z739) (assay: HTRF-based binding assay, DF3). Details: HTRF, 100 µM compound, normalized.
T3 construct: made in house
T3 sequence (Q7Z739 1-585): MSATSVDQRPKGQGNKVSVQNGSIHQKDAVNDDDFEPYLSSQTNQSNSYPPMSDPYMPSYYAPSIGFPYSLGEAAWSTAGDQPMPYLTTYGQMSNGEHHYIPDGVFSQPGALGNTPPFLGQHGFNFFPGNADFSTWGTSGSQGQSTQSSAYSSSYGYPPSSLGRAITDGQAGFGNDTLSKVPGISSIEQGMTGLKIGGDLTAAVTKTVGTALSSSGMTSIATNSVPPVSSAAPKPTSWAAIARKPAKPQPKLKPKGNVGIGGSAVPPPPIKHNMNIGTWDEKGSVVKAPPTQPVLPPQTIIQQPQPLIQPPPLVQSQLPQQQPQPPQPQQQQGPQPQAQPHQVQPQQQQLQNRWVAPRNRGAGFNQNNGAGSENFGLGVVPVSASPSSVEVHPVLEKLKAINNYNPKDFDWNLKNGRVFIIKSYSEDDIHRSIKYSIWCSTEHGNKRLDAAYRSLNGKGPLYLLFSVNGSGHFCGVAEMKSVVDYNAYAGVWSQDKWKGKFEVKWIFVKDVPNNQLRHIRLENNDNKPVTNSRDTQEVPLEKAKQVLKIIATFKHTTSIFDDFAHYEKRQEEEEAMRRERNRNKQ
Experimental: as §1, §2, §3
In the case of `Cc1c(C(C)O)sc2[nH]c(=S)[nH]c(=O)c12` (racemic) [Compound S79], the “Single-dose residual signal at 100 µM, DF3” value is reported as 30%. `Cc1cc2c(=O)[nH]c(=S)[nH]c2s1` [Compound S78] was tested, and the “Single-dose residual signal at 100 µM, DF3” value was 22%. With `Cc1c(C(=O)O)sc2[nH]c(=S)[nH]c(=O)c12` [Compound S80] the “Single-dose residual signal at 100 µM, DF3” value was 29%. In the case of `Cc1c(C(=O)NCCCCO)sc2[nH]c(=S)[nH]c(=O)c12` [Compound S83], the “Single-dose residual signal at 100 µM, DF3” value is reported as 40%.

These compounds were tested against T4, YTHDC2 (Homo sapiens, UniProt Q9H6S0) (assay: DNA-fluorescence polarization (FP) competition assay, DC2). Details: Cheng-Prusoff from FP IC50, probe Kd 7 nM; two biological replicates.
T4 construct: YTH domain of YTHDC2 (residues 1285–1424, cloned into the pGEX-6P-1 vector); made in house; host or cells: Rosetta (DE3) cells (E. coli)
T4 sequence (Q9H6S0 1285-1424): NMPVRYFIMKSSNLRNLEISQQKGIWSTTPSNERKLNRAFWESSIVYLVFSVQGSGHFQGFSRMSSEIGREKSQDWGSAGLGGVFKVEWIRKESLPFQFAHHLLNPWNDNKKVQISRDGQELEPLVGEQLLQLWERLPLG
Format: binding
Experimental: The binding affinity for DC1 could not be evaluated by HTRF because of interference of the compounds with the assay, which has a smaller assay window when performed with DC1 compared to the DF proteins. Thus, the FP assay was used to evaluate binding to DC1 and DC2.
The N-terminally GST-tagged YTH domain of YTHDC2 (residues 1285–1424, cloned into the pGEX-6P-1 vector) was overexpressed in Rosetta (DE3) cells grown overnight at 20 °C following induction with 0.4 mM isopropyl-β-D-thiogalactopyranoside (IPTG) at an OD600 of 0.8. The cells were harvested and resuspended in a lysis buffer containing 100 mM Tris–HCl (pH 8.0) and 500 mM NaCl. After cell lysis, the lysate was clarified by centrifugation at 48,000g for 1 h, and the soluble proteins were loaded onto a column packed with Glutathione Sepharose 4B (GE Healthcare), then eluted with 20 mM reduced glutathione in lysis buffer. Finally, a size-exclusion chromatography step (HiLoad 16/600 Superdex 200 pg column, GE Healthcare) was performed to further purify the protein in 20 mM Tris–HCl (pH 7.4) and 150 mM NaCl.
For fluorescence polarization (FP) experiments, a 5′-fluorescein-labeled m^6A-DNA probe (5′-FAM-[…](m6A)-CTAAGCT-3′) was synthesized by Microsynth AG.
The final concentration of the fluorescein-labeled DNA was kept constant at 3 nM. For YTHDC2 measurements, the protein concentration was set to 25 nM, while for YTHDF2 measurements, it was set to 10 nM, and for YTHDC1, it was set at 15 nM. The compound concentration was serially diluted to obtain the dose–response curve. The competition experiments were conducted in a final volume of 20 μL in a buffer containing 20 mM Tris–HCl (pH 7.4), 150 mM NaCl, and 0.01% bovine serum albumin (BSA), using a 384-well black flat-bottomed microplate (Corning 3575).
After incubating the mixture for 1 h, the anisotropy values were measured using a Tecan SPARK plate reader with 485/20 nm excitation and 535/25 nm emission polarization filters, suitable for fluorescein, at 25 °C. To obtain the equilibrium dissociation constant (K d), the IC50 values were first derived by fitting a dose–response curve to the data using nonlinear regression analysis in GraphPad Prism. These IC50 values were then converted to K d by using the Cheng–Prusoff equation: Kd=IC50/1+[L]/Kdprobe
IC50 is the observed value from FP assay, [L] is the probe concentration used, and K d ^probe is the binding affinity of probe for the target.
`Cc1c(C(C)O)sc2[nH]c(=S)[nH]c(=O)c12` (racemic) [Compound S79] showed a Kd greater than 1000 µM. `Cc1cc2c(=O)[nH]c(=S)[nH]c2s1` [Compound S78] showed a Kd greater than 1000 µM. Work on `Cc1c(C(=O)NCCCCO)sc2[nH]c(=S)[nH]c(=O)c12` [Compound S83] yielded a Kd greater than 1000 µM.
